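Each compound was tested at five concentrations against cells in 96-well plates for 48 hours. At the GI50, growth is halved.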 Active and inactive are the calls of the source. Cut-off read from the data, not from the text of the source: active = GI50 up to about 1.1 µM and inactive = higher.
Experiments:
Test in all cases: inhibition of tumour cell growth, NCI panel, 48 h
SW-620 = system: SW-620
UO-31 = system: UO-31
LOX IMVI = system: LOX IMVI
M14 = system: M14
SK-MEL-2 = system: SK-MEL-2
Hs-578T = system: Hs-578T
KM12 = system: KM12
HCT-116 = system: HCT-116
SF-539 = system: SF-539
Malme-3M = system: Malme-3M
HOP-62 = system: HOP-62
U-251 = system: U-251
SF-268 = system: SF-268
SK-MEL-28 = system: SK-MEL-28
CCRF-CEM = system: CCRF-CEM
MDA-N = system: MDA-N
CAKI-1 = system: CAKI-1
RXF 393 = system: RXF 393
TK-10 = system: TK-10
SN12C = system: SN12C
IGROV-1 = system: IGROV-1
PC-3 = system: PC-3
OVCAR-8 = system: OVCAR-8
786-0 = system: 786-0
A498 = system: A498
OVCAR-4 = system: OVCAR-4
DU-145 = system: DU-145
SK-OV-3 = system: SK-OV-3
OVCAR-3 = system: OVCAR-3
MDA-MB-435 = system: MDA-MB-435
UACC-257 = system: UACC-257
NCI-H23 = system: NCI-H23
HL-60 = system: HL-60
NCI-H522 = system: NCI-H522
HCT-15 = system: HCT-15
OVCAR-5 = system: OVCAR-5
MDA-MB-231 = system: MDA-MB-231
MOLT-4 = system: MOLT-4
A549 = system: A549
SK-MEL-5 = system: SK-MEL-5
EKVX = system: EKVX
COLO 205 = system: COLO 205
BT-549 = system: BT-549
RPMI-8226 = system: RPMI-8226
SF-295 = system: SF-295
UACC-62 = system: UACC-62
HT-29 = system: HT-29
ACHN = system: ACHN
SNB-19 = system: SNB-19
NCI-H226 = system: NCI-H226
MCF7 = system: MCF7
NCI/ADR-RES = system: NCI/ADR-RES
T47D = system: T47D
NCI-H460 = system: NCI-H460
HCC 2998 = system: HCC 2998
K562 = system: K562
SR = system: SR
SNB-75 = system: SNB-75
HOP-92 = system: HOP-92

CCCCN1C(=O)C[C@H]2[C@@H]3CCc4cc(OCCN5CCCC5)ccc4[C@H]3CC[C@]2(C)C1=O
GI50 (SW-620): 11.5 µM (inactive) | GI50 (UO-31): 4.6 µM (inactive) | GI50 (LOX IMVI): 3.19 µM (inactive) | GI50 (M14): 2.03 µM (inactive) | GI50 (SK-MEL-2): 4.67 µM (inactive) | GI50 (Hs-578T): 13.2 µM (inactive) | GI50 (KM12): 7.94 µM (inactive) | GI50 (HCT-116): 3.64 µM (inactive) | GI50 (SF-539): 9.71 µM (inactive) | GI50 (Malme-3M): 3.89 µM (inactive) | GI50 (HOP-62): 4.07 µM (inactive) | GI50 (U-251): 5.51 µM (inactive) | GI50 (SF-268): 12.9 µM (inactive) | GI50 (SK-MEL-28): 3.45 µM (inactive) | GI50 (CCRF-CEM): 4.06 µM (inactive) | GI50 (MDA-N): 4.38 µM (inactive) | GI50 (CAKI-1): 7.96 µM (inactive) | GI50 (RXF 393): 1.89 µM (inactive) | GI50 (TK-10): 14.6 µM (inactive) | GI50 (SN12C): 14.2 µM (inactive) | GI50 (IGROV-1): 15.7 µM (inactive) | GI50 (PC-3): 7.48 µM (inactive) | GI50 (OVCAR-8): 15.1 µM (inactive) | GI50 (786-0): 2.88 µM (inactive) | GI50 (A498): 14.7 µM (inactive) | GI50 (OVCAR-4): 14.1 µM (inactive) | GI50 (DU-145): 13.9 µM (inactive) | GI50 (SK-OV-3): 13.9 µM (inactive) | GI50 (OVCAR-3): 10.6 µM (inactive) | GI50 (MDA-MB-435): 6.31 µM (inactive) | GI50 (UACC-257): 4.38 µM (inactive) | GI50 (NCI-H23): 11.4 µM (inactive) | GI50 (HL-60): 7.1 µM (inactive) | GI50 (NCI-H522): 8.41 µM (inactive) | GI50 (HCT-15): 6 µM | GI50 (OVCAR-5): 11.4 µM (inactive) | GI50 (MDA-MB-231): 4.71 µM (inactive) | GI50 (MOLT-4): 2.65 µM (inactive) | GI50 (A549): 7.8 µM (inactive) | GI50 (SK-MEL-5): 5.94 µM (inactive) | GI50 (EKVX): 14.5 µM (inactive) | GI50 (COLO 205): 1.92 µM (inactive) | GI50 (BT-549): 13.7 µM (inactive) | GI50 (RPMI-8226): 2.96 µM (inactive) | GI50 (SF-295): 3.9 µM (inactive) | GI50 (UACC-62): 3.72 µM (inactive) | GI50 (HT-29): 0.979 µM (active) | GI50 (ACHN): 12.9 µM (inactive) | GI50 (SNB-19): 12.6 µM (inactive) | GI50 (NCI-H226): 6.53 µM (inactive) | GI50 (MCF7): 5.65 µM (inactive) | GI50 (NCI/ADR-RES): 14.7 µM (inactive) | GI50 (T47D): 12.3 µM (inactive) | GI50 (NCI-H460): 5.79 µM (inactive) | GI50 (HCC 2998): 10.3 µM (inactive) | GI50 (K562): 1.74 µM (inactive) | GI50 (SR): 3.79 µM (inactive) | GI50 (SNB-75): 3.4 µM (inactive) | GI50 (HOP-92): 6.08 µM (inactive)

CCCC(=O)Nc1cc(/C=C/C(=O)N2CC(CCl)c3c2cc(OCc2ccccc2)c2[nH]cc(C)c32)n(C)c1 (configuration not stated)
GI50 (SW-620): 0.0597 µM (active) | GI50 (UO-31): 0.0493 µM (active) | GI50 (LOX IMVI): 0.0817 µM (active) | GI50 (M14): 0.142 µM (active) | GI50 (SK-MEL-2): 0.074 µM (active) | GI50 (Hs-578T): 0.14 µM (active) | GI50 (KM12): 0.102 µM (active) | GI50 (HCT-116): 0.0272 µM (active) | GI50 (SF-539): 0.0472 µM (active) | GI50 (Malme-3M): 0.0916 µM (active) | GI50 (HOP-62): 0.0491 µM (active) | GI50 (U-251): 0.0513 µM (active) | GI50 (SF-268): 0.0226 µM (active) | GI50 (SK-MEL-28): 0.215 µM (active) | GI50 (CCRF-CEM): 0.0101 µM (active) | GI50 (MDA-N): 0.249 µM (active) | GI50 (CAKI-1): 0.0295 µM (active) | GI50 (RXF 393): 0.0383 µM (active) | GI50 (TK-10): 0.533 µM (active) | GI50 (SN12C): 0.186 µM (active) | GI50 (IGROV-1): 0.0211 µM (active) | GI50 (PC-3): 0.103 µM (active) | GI50 (OVCAR-8): 0.0221 µM (active) | GI50 (786-0): 0.0365 µM (active) | GI50 (A498): 0.0953 µM (active) | GI50 (OVCAR-4): 0.069 µM (active) | GI50 (DU-145): 0.0194 µM (active) | GI50 (SK-OV-3): 0.199 µM (active) | GI50 (OVCAR-3): 0.127 µM (active) | GI50 (MDA-MB-435): 0.251 µM (active) | GI50 (UACC-257): 0.105 µM (active) | GI50 (NCI-H23): 0.0139 µM (active) | GI50 (HL-60): 0.0259 µM (active) | GI50 (NCI-H522): 0.00849 µM (active) | GI50 (HCT-15): 0.106 µM | GI50 (OVCAR-5): 0.151 µM (active) | GI50 (MDA-MB-231): 0.247 µM (active) | GI50 (MOLT-4): 0.00855 µM (active) | GI50 (A549): 0.0219 µM (active) | GI50 (SK-MEL-5): 0.02 µM (active) | GI50 (EKVX): 0.136 µM (active) | GI50 (COLO 205): 0.188 µM (active) | GI50 (BT-549): 0.159 µM (active) | GI50 (RPMI-8226): 0.0745 µM (active) | GI50 (SF-295): 0.0317 µM (active) | GI50 (UACC-62): 0.027 µM (active) | GI50 (HT-29): 0.0687 µM (active) | GI50 (ACHN): 0.013 µM (active) | GI50 (SNB-19): 0.337 µM (active) | GI50 (NCI-H226): 0.107 µM (active) | GI50 (MCF7): 0.0025 µM (active) | GI50 (NCI/ADR-RES): 0.0238 µM (active) | GI50 (T47D): 0.225 µM (active) | GI50 (NCI-H460): 0.0147 µM (active) | GI50 (HCC 2998): 0.0253 µM (active) | GI50 (K562): 0.0373 µM (active) | GI50 (SR): 0.00444 µM (active) | GI50 (SNB-75): 0.0675 µM (active) | GI50 (HOP-92): 0.0698 µM (active)

N=C1OC(CN2CCN(c3ccccc3)CC2)CN1C(=S)Nc1ccccc1 (configuration not stated)
GI50 (SW-620): > 100 µM (inactive) | GI50 (UO-31): 37.2 µM (inactive) | GI50 (LOX IMVI): 25.3 µM (inactive) | GI50 (M14): 55 µM (inactive) | GI50 (SK-MEL-2): 59.2 µM (inactive) | GI50 (Hs-578T): 13 µM (inactive) | GI50 (KM12): 39.2 µM (inactive) | GI50 (HCT-116): > 100 µM (inactive) | GI50 (SF-539): 96.2 µM (inactive) | GI50 (Malme-3M): 38.9 µM (inactive) | GI50 (HOP-62): 45.5 µM (inactive) | GI50 (U-251): 78.7 µM (inactive) | GI50 (SF-268): 39.4 µM (inactive) | GI50 (SK-MEL-28): 84.3 µM (inactive) | GI50 (CCRF-CEM): 37.1 µM (inactive) | GI50 (MDA-N): 84.9 µM (inactive) | GI50 (CAKI-1): 95.5 µM (inactive) | GI50 (RXF 393): 41.1 µM (inactive) | GI50 (TK-10): 43.5 µM (inactive) | GI50 (SN12C): > 100 µM (inactive) | GI50 (IGROV-1): 92.7 µM (inactive) | GI50 (PC-3): 65.3 µM (inactive) | GI50 (OVCAR-8): 99.3 µM (inactive) | GI50 (786-0): > 100 µM (inactive) | GI50 (A498): 89.9 µM (inactive) | GI50 (OVCAR-4): > 100 µM (inactive) | GI50 (DU-145): > 100 µM (inactive) | GI50 (SK-OV-3): > 100 µM (inactive) | GI50 (OVCAR-3): 42.8 µM (inactive) | GI50 (MDA-MB-435): 76.6 µM (inactive) | GI50 (UACC-257): 56 µM (inactive) | GI50 (NCI-H23): 50.6 µM (inactive) | GI50 (HL-60): 31 µM (inactive) | GI50 (NCI-H522): 28.9 µM (inactive) | GI50 (HCT-15): 91 µM | GI50 (OVCAR-5): 97.5 µM (inactive) | GI50 (MDA-MB-231): > 100 µM (inactive) | GI50 (MOLT-4): 44.3 µM (inactive) | GI50 (A549): 94.8 µM (inactive) | GI50 (SK-MEL-5): 35.8 µM (inactive) | GI50 (EKVX): 32.6 µM (inactive) | GI50 (COLO 205): > 100 µM (inactive) | GI50 (BT-549): 62.2 µM (inactive) | GI50 (RPMI-8226): 54 µM (inactive) | GI50 (SF-295): 32.7 µM (inactive) | GI50 (UACC-62): 48.8 µM (inactive) | GI50 (HT-29): 49.7 µM (inactive) | GI50 (ACHN): 66.5 µM (inactive) | GI50 (SNB-19): 96.4 µM (inactive) | GI50 (NCI-H226): 78.9 µM (inactive) | GI50 (MCF7): 37.2 µM (inactive) | GI50 (NCI/ADR-RES): 45.4 µM (inactive) | GI50 (T47D): 35.6 µM (inactive) | GI50 (NCI-H460): 63.1 µM (inactive) | GI50 (HCC 2998): > 100 µM (inactive) | GI50 (K562): 33.9 µM (inactive) | GI50 (SR): 29.8 µM (inactive) | GI50 (SNB-75): 31 µM (inactive) | GI50 (HOP-92): 21.9 µM (inactive)

From ChEMBL document CHEMBL1201862, “PubChem BioAssay data set” (2004)
